How the values were obtained:
Experiment in all cases: relative viability (nuclei count vs DMSO), 5 days (fraction); higher = more cells survive
[1] = compound: COc1ccc(-c2ccc3c(N4CCOC[C@@H]4C)nc(N4CCOC[C@@H]4C)nc3n2)cc1CO [AZD8055] + CC(C)C[C@H](NC(=O)[C@H](Cc1ccccc1)NC(=O)c1cnccn1)B(O)O [Bortezomib] (partner 0.002 µM)
Summary of the method: (§1)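 For relative viability, nuclei counts in treated wells were divided by those in vehicle wells. Lung cancer cell lines had been pin-tool dosed in 1536-well plates the day after seeding and cultured for 5 days, then fixed and stained in one step (final 0.05% Triton X-100, 1% formaldehyde, 1 ug/ml Hoechst) and imaged at 4×. Doses were one drug alone or a fixed anchor-drug dose plus five library-drug doses (not always all listed) in √10 steps, and values are duplicate-plate medians.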

[2] = compound: COc1ccc(-c2ccc3c(N4CCOC[C@@H]4C)nc(N4CCOC[C@@H]4C)nc3n2)cc1CO [AZD8055] + CS(=O)(=O)N1CCN(Cc2cc3nc(-c4cccc5[nH]ncc45)nc(N4CCOCC4)c3s2)CC1 [Pictilisib] (partner 1 µM)
Summary of the method: as §1

[3] = compound: COc1ccc(-c2ccc3c(N4CCOC[C@@H]4C)nc(N4CCOC[C@@H]4C)nc3n2)cc1CO [AZD8055] + O=C(c1cc(Cc2n[nH]c(=O)c3ccccc23)ccc1F)N1CCN(C(=O)C2CC2)CC1 [Olaparib] (partner 8 µM)
Summary of the method: as §1

[4] = compound: COc1ccc(-c2ccc3c(N4CCOC[C@@H]4C)nc(N4CCOC[C@@H]4C)nc3n2)cc1CO [AZD8055] + CC(=O)Nc1cccc(-n2c(=O)n(C3CC3)c(=O)c3c(Nc4ccc(I)cc4F)n(C)c(=O)c(C)c32)c1 [Trametinib] (partner 0.02 µM)
Summary of the method: as §1

Cell Line | relative viability ([1]; first compound 0.01 µM) | relative viability ([1]; first compound 0.03162 µM) | relative viability ([1]; first compound 0.1 µM) | relative viability ([1]; first compound 0.3162 µM) | relative viability ([1]; first compound 1 µM) | relative viability ([2]; first compound 0.01 µM) | relative viability ([2]; first compound 0.03162 µM) | relative viability ([2]; first compound 0.1 µM) | relative viability ([2]; first compound 0.3162 µM) | relative viability ([2]; first compound 1 µM) | relative viability ([3]; first compound 0.01 µM) | relative viability ([3]; first compound 0.03162 µM) | relative viability ([3]; first compound 0.1 µM) | relative viability ([3]; first compound 0.3162 µM) | relative viability ([3]; first compound 1 µM) | relative viability ([4]; first compound 0.01 µM) | relative viability ([4]; first compound 0.03162 µM) | relative viability ([4]; first compound 0.1 µM) | relative viability ([4]; first compound 0.3162 µM) | relative viability ([4]; first compound 1 µM)
201T | 1.12 | 1.1 | 1.11 | 0.881 | 0.811 | 0.623 | 0.606 | 0.521 | 0.495 | 0.472 | 0.878 | 0.854 | 0.813 | 0.673 | 0.456 | 0.7 | 0.689 | 0.629 | 0.519 | 0.492
A549 |  |  |  |  |  | 0.395 | 0.345 | 0.189 | 0.123 | 0.105 | 0.279 | 0.359 | 0.21 | 0.142 | 0.0857 |  |  |  |  | 
A-427 | 1.01 | 0.815 | 0.858 | 0.518 | 0.462 | 0.747 | 0.684 | 0.677 | 0.501 | 0.507 | 0.718 | 0.695 | 0.611 | 0.529 | 0.431 | 0.746 | 0.577 | 0.488 | 0.351 | 0.334
ABC-1 | 0.3 | 0.287 | 0.366 | 0.284 | 0.329 | 0.78 | 0.659 | 0.556 | 0.438 | 0.334 | 1.3 | 1.37 | 0.992 | 0.717 | 0.907 |  |  |  |  | 
BEN | 0.663 | 0.472 | 0.428 | 0.365 | 0.262 | 0.541 | 0.391 | 0.34 | 0.316 | 0.254 | 1.15 | 0.884 | 0.658 | 0.455 | 0.518 | 0.87 | 0.626 | 0.569 | 0.467 | 0.463
CAL-12T | 1.21 | 0.955 | 0.521 | 0.298 | 0.316 | 0.393 | 0.341 | 0.349 | 0.322 | 0.213 | 0.679 | 0.654 | 0.491 | 0.277 | 0.226 | 0.33 | 0.308 | 0.227 | 0.186 | 0.196
COR-L23 | 1.2 | 0.834 | 0.779 | 0.236 | 0.168 | 0.95 | 0.478 | 0.35 | 0.16 | 0.17 | 0.408 | 0.42 | 0.277 | 0.143 | 0.141 | 0.512 | 0.528 | 0.334 | 0.127 | 0.157
COR-L 105 | 0.997 | 0.879 | 0.565 | 0.309 | 0.373 | 0.488 | 0.31 | 0.388 | 0.326 | 0.35 | 0.738 | 0.741 | 0.707 | 0.455 | 0.448 | 0.416 | 0.412 | 0.44 | 0.404 | 0.416
Calu-6 | 1.04 | 0.917 | 0.824 | 0.489 | 0.457 | 0.826 | 0.737 | 0.531 | 0.4 | 0.366 | 0.716 | 0.616 | 0.505 | 0.478 | 0.362 |  |  |  |  | 

Source: the supplement of paper PMC10307832
